Literature values as cited in patent publication US9795640B2, “Controlling appetite, promoting weight loss, reducing body fat, and/or improving glucose tolerance” (VANDERBILT UNIVERSITY, priority 2011, dated 2017).

Details: intraperitoneal administration; for obesity: animals fed a high-fat diet

| SMILES | food intake | obesity |
| --- | --- | --- |
| CCCCCCCCCCCCCCCCCC(=O)NCCO [SEA, N-stearoyl-ethanolamide] | markedly reduces | markedly reduces |
| CCCCCCCC/C=C\CCCCCCCC(=O)NCCO [OEA, N-oleoyl-ethanolamide] | markedly reduces | markedly reduces |
